Tests used:
Assay in all cases: Solid tumour and haematological malignancy assay (CellTiterGlo)
Assay type in all cases: cell-based
[1] = tested on: MV4-11; details: for IC50: Homo sapiens, MV4-11, 72 h, read-out: IC50 (absolute IC50)
[2] = tested on: NCI-H929; details: Homo sapiens, NCI-H929, 72 h, read-out: MI %
[3] = tested on: RL; details: Homo sapiens, 72 h, read-out: MI %
[4] = tested on: THP-1; details: 72 hr
[5] = tested on: Z138; details: 72 hr
[6] = tested on: CCRFCEM; details: Homo sapiens, CCRF-CEM, 72 h
Experimental: In vitro viability assay were performed to assess the effects of compounds on cell viability in selected cell lines over 72 hr using the CellTiterGlo (CTG, Promega-G7573) assay. […] Cell viability assay using CellTiterGlo in 96-well plate were performed. Compound treatment 72 hrs, standard growth conditions, duplicates. Compounds were dissolved to 40 mM with thawed 100%. […] After compounds were dissolved in media, media containing compounds were warmed to 37° C. in incubator and then compounds in media were added to cell plates (50 μl+50 μl) in duplicates. […] All compound solubilities were checked and recorded again, then the plates were transferred to CO2 tissue culture incubator immediately and incubated for 3 days. DMSO final concentration is 0.5%.

Compound	IC50 [1] [µM]	MI % ([1]; MV4-11, 72 hr) [%]	Emax [2] [%]	Emax [3] [%]	MI % [4] [%]	MI % [5] [%]	Emax ([6]; read-out: MI %) [%]	IC50 ([6]; read-out: IC50 (absolute IC50)) [µM]
COC(=O)C(C)(C)NP(=O)(OC[C@@H]1C[C@@H](O)[C@H](n2cnc3c(N)ncnc32)O1)Oc1cccc2ccccc12 (stereo partly drawn) [E, Methyl 2-(((((2S,4R,5R)-5-(6-amino-9H-purin-9-yl)-4-hydroxytetrahydrofuran-2-yl)-methoxy)(naphthalen-1-yloxy)phosphoryl)amino)-2-methylpropanoate]	5 to 15	101	98	88	43	93		
CCOC(=O)CCc1ccccc1OP(=O)(N[C@@H](C)C(=O)OCc1ccccc1)OC[C@@H]1C[C@@H](O)[C@H](n2cnc3c(N)ncnc32)O1 (stereo partly drawn) [F, (2S)-benzyl 2-(((((2S,4R,5R)-5-(6-amino-9H-purin-9-yl)-4-hydroxytetrahydrofuran-2-yl)methoxy)(2-(3-ethoxy-3-oxopropyl)phenoxy)phosphoryl)amino)propanoate]						76	101	
C[C@H](NP(=O)(OC[C@@H]1C[C@@H](O)[C@H](n2cnc3c(N)ncnc32)O1)Oc1cccc2ccccc12)C(=O)OCc1ccccc1 (stereo partly drawn) [B, (2S)-benzyl 2-(((((2S,4R,5R)-5-(6-amino-9H-purin-9-yl)-4-hydroxytetrahydrofuran-2-yl)methoxy)(naphthalen-1-yloxy)phosphoryl)amino)propanoate]	0.1 to 5			96	99			0.1 to 5

Source: patent publication US12054510B2, “2′ and/or 5′ amino-acid ester phosphoramidate 3′-deoxy adenosine derivatives as anti-cancer compounds” (Nucana plc, priority 2014, dated 2024)
